Experimental data taken from US20110275692A1, “SUBSTITUTED GAMMA LACTAMS AS THERAPEUTIC AGENTS” (ALLERGAN, INC., priority 2005, published 2011).

What was measured:
[1] = target: T1, EP2 (Homo sapiens, UniProt P43116); assay: EP2 cAMP; assay type: cell-based
[2] = target: T2, hEP2/Gqs5 (Homo sapiens, UniProt P43116); assay: EP2 FLIPR calcium signal; assay type: cell-based; settings: HEK-293(EBNA) cells
T2 construct: expressed in transfected cells; host or cells: HEK-293(EBNA)
Method: (§1) HEK-293(EBNA) cells, stably expressing one type or subtype of recombinant human prostaglandin receptors (prostaglandin receptors expressed: hDP/Gqs5; hEP1; hEP2/Gqs5; hEP3A/Gqi5; hER4/Gqs5; hFP; hIP; hTP), were cultured in 100 mm culture dishes in high-glucose DMEM medium containing 10% fetal bovine serum, 2 mM 1-glutamine, 250 μg/ml geneticin (G418) and 200 μg/ml hygromycin B as selection markers, and 100 units/ml penicillin G, 100 μg/ml streptomycin and 0.25 μg/ml amphotericin B.
(§2) Cells were seeded at a density of 5×10^4 cells per well in Biocoat® Poly-D-lysine-coated black-wall, clear-bottom 96-well plates (Becton-Dickinson) and allowed to attach overnight in an incubator at 37° C. Cells were then washed two times with HBSS-HEPES buffer (Hanks Balanced Salt Solution without bicarbonate and phenol red, 20 mM HEPES, pH 7.4) using a Denley Cellwash plate washer (Labsystems). […]
(§3) Cells were excited with an Argon laser at 488 nm, and emission was measured through a 510-570 nm bandwidth emission filter (FLIPR™, Molecular Devices, Sunnyvale, Calif.). […] The peak increase in fluorescence intensity was recorded for each well. […] The peak fluorescence change in each drug-containing well was then expressed relative to the controls. […]

[3] = target: T3, hEP3A/Gqi5 (Homo sapiens, UniProt P43115); assay: Other receptors: hEP3A FLIPR; assay type: cell-based
T3 construct: expressed in transfected cells; host or cells: HEK-293(EBNA)
T3 sequence (P43115 1-390): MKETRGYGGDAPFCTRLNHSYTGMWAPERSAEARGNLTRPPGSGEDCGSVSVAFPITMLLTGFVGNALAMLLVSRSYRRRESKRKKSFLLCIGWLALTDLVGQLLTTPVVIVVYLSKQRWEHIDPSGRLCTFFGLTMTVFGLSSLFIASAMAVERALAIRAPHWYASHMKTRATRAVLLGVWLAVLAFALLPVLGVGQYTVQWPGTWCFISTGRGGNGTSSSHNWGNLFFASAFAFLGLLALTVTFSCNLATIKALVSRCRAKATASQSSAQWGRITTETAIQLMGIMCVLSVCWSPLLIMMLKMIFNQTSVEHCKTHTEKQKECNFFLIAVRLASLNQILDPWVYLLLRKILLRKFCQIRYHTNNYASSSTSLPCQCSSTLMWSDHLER
Method: as §1, §2, §3

[4] = target: T1, EP2; assay: EP2 competition binding ([3H]PGE2); set-up: expressed in transfected cells; host or cells: HEK 293; settings: HEK 293 cells stably expressing human EP2, [3H]PGE2
Method: Competition binding experiments were performed in a medium containing Hank's balanced salt solution, Hepes 20 mM, pH 7.3, membranes (˜60 μg protein) or 2×10^5 cells from HEK 293 cells stably expressing human EP2 receptors, [^3H]PGE2 (10 nM) and various concentrations of test compounds in a total volume of […] Reaction mixtures were incubated at 23° C. for 60 min, and were filtered over Whatman GF/B filters under vacuum. Filters were washed three times with 5 ml ice-cold buffer containing 50 mM Tris/HCl (pH 7.3). Non-specific binding was estimated in the presence of excess unlabeled PGE2 (10 μM). Binding data fitted to the binding model for a single class of binding sites, using nonlinear regression analysis. IC50 values thus obtained were converted to Ki using the equation of Ki=(IC50/(1+[L]/KD) where [L] represents PGE2 concentration (10 nM) and KD the dissociation constant for [^3H]PGE2 at human EP2 receptors (40 nM). […]
The cell homogenate was centrifuged at 19000 r.p.m. for 20 min at 4° C. using a Beckman Ti-60 rotor. The resultant pellet was resuspended in TME buffer to give a final 1 mg/ml protein concentration, as determined by Biorad assay. […]
(§4) [^3H-]PGE2 (specific activity 180 Ci mmol) was used as the radioligand for EP receptors. […] 17-phenyl PGF2α and non-specific binding determined with 10^−5M of unlabeled PGE2, or 17-phenyl PGF2α, according to receptor subtype studied.

[5] = target: T4, EP4 receptors (Homo sapiens, UniProt P35408); assay: EP4 radioligand binding ([3H]PGE2)
T4 construct: expressed in transfected cells; host or cells: HEK-293
Method: HEK-293 cells stably expressing the human or feline FP receptor, or EP1, EP2, or EP4 receptors were washed with TME buffer, scraped from the bottom of the flasks, and homogenized for 30 sec using a Brinkman PT 10/35 polytron. TME buffer was added to achieve a final 40 ml volume in the centrifuge tubes (the composition of TME is 100 mM TRIS base, 20 mM MgCl2, […]; 10N HCl is added to achieve a pH of 7.4).
The cell homogenate was centrifuged at 19000 r.p.m. for 20 min at 4° C. using a Beckman Ti-60 rotor. The resultant pellet was resuspended in TME buffer to give a final 1 mg/ml protein concentration, as determined by Biorad assay. Radioligand binding competition assays vs. [^3H-]17-phenyl PGF2α (5 nM) were performed in a 100 μl volume for 60 min. Binding reactions were started by adding plasma membrane fraction. The reaction was terminated by the addition of 4 ml ice-cold TRIS-HCl buffer and rapid filtration through glass fiber GF/B filters using a Brandel cell harvester. The filters were washed 3 times with ice-cold buffer and oven dried for one hour.
as §4, with “receptors. [^3H] 17-phenyl PGF2α was employed for FP receptor binding studies.” for “receptors.”

T1 sequence (P43116 whole entry): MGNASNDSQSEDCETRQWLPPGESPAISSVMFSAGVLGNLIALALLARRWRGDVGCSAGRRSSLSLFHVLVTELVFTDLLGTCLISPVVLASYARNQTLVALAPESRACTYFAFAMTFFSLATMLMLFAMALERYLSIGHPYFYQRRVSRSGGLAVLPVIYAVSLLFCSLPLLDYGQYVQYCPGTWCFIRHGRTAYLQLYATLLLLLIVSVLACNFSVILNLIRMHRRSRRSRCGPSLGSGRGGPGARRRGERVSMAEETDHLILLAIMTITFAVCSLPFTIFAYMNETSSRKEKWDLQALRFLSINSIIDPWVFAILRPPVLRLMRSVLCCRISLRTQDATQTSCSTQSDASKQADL
T4 sequence (P35408 whole entry): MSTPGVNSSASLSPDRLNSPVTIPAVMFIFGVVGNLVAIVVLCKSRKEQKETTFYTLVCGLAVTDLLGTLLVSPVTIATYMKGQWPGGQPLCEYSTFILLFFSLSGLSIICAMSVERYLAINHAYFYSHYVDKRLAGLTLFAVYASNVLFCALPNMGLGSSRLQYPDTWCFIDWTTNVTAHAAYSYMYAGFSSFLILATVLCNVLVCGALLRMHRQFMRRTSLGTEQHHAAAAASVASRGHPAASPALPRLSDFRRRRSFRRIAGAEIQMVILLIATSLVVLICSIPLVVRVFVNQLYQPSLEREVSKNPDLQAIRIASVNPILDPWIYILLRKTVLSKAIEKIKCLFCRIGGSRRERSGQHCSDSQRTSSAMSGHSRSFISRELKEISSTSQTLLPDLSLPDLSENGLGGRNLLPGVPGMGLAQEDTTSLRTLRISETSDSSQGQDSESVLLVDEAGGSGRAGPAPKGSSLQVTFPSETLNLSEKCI
T2 sequence (P43116 whole entry): as the sequence (P43116 whole entry) above

- EC50 [1]: 15 nM
- EC50 [2]: 226 nM
- EC50 [3]: 1410 nM
- Ki [4]: 1380 nM
- Ki [5]: > 10000 nM
SMILES: CCCCCC(O)c1ccc(N2C(=O)CC[C@@H]2C=CCc2ccc(C(=O)O)s2)cc1 (stereo partly drawn) [Example 16, 5-((E and Z)-3-{(R)-1-[4-(1-Hydroxy-hexyl)-phenyl]-5-oxo-pyrrolidin-2-yl}-allyl)-thiophene-2-carboxylic acid]
